Experimental data as given in patent US20150313934A1, “Use of PVP-Iodine Liposomes for Treatment of Herpes” (priority 2003, published 2015).

Legend:
[1] = test system: Human ciliated epithelium cells
Experimental: The toleration of liposomal PVP-iodine solutions for nasal applications was studied by investigating the influence of different test substances on ciliated epithelium cells, the most sensible cells of the mucous membrane. A cytotoxic damage of these cells which would cause a restriction of the niucoclliar clearance can. be determined by a detectable decrease of the ciliary vibration.
Human ciliated epithelium cells were analysed by an in-vitro method which enables the determination of the ciliary activity or ciliary vibration. The corresponding cells were exposed and incubated with 100 je.I test substance at a temperature of 37 C. After an incubation period of 5 minutes the ciliary vibration, was measured.
By using this in-vltro method a nutriant solution (Dulbeco) as standard, a 0.2% chlorohexidine solution (typical antiseptic agent), conventional polyvidone iodine solutions (Betaisodona) .of different concentrations (5.0%, 2.5% and 1.25% PVP-iodine) and a liposomal solution containing 4.5% of PVP-iodine were tested.

human viruses = conditions: aqueous solution mixed with viral suspensions; cited from earlier work

Row | Molecule | ciliary activity / ciliary vibration [1] | antiviral effect on viral suspensions (human viruses)
1 | N=C(NCCCCCCNC(=N)NC(=N)Nc1ccc(Cl)cc1)NC(=N)Nc1ccc(Cl)cc1 [chlorohexidine] | decrease of the measured ciliary vibration | 
2 | poly(1-vinyl-2-pyrrolidin-2-on)-iodine complex [PVP-iodine] |  | effective antiviral compound
